The source of these data is US20160015786A1, “MOBILIZING AGENTS AND USES THEREFOR” (MATER MEDICAL RESEARCH INSTITUTE LIMITED, priority 2013, published 2016).

Assay [1] deals with colony-forming cells (CFCs). Put plainly: Mobilization of colony-forming cells (CFC/CFU) to blood and spleen, colony assays. It counts as in vivo, C57BL/6 mice. On the procedure: Mobilization of colony-forming cells (CFCs) to the blood and spleen were measured (FIG. 1B).
This was divided into two experiments in which G-CSF was administered for 2 days in one experiment and 4 days in the other (FIG. 2). […] Mobilization of CFCs, phenotypic Lin^−CD41^−Sca1^+Kit^+ HSPCs and Lin^−CD41^− Sca1^+Kit^+CD48^−CD150^+ HSCs were measured in blood and spleens.
Additional HIF-α potentiating agents in the form of PHD inhibitors were tested for their ability to enhance mobilization induced by G-CSF.
(§1) At the end of treatment, blood was harvested by cardiac puncture, mice were sacrificed by cervical dislocation and spleens harvested. Femurs were removed, cleaned and the bone marrow was flushed with 1 mL PBS+10% newborn calf serum (NCS).
The number of phenotypic hematopoietic stem and progenitor cells remaining in the bone marrow following treatment was measured by flow cytometry using antibodies specific for lineage markers (CD3, CD5, CD45R/B220, F4/80, Gr1, CD41, Ter119), Sca-1, Kit, CD48 and CD150. Similarly, the number of phenotypic hematopoietic stem cells mobilized into the blood and spleen were measured. Colony assays were also performed on blood and spleen to determine the number of colony forming cells per mL of blood and per spleen. […] Levels of significance for differences were calculated using the Student's t-test.
All procedures were approved by the animal experimentation ethics committee of the University of Queensland. […] Plerixafor (AMD3100 octohydrochloride, Tocris Bioscience, Bristol, UK) was injected intraperitoneally as a single 16 mg/kg dose corresponding to 10 mg/kg of AMD3100 base. Tissues were harvested 1 h after Plerixafor administration. […] Control mice were injected with an equivalent volume of saline. At specified time-points, mice were anesthetized with isoflurane before cardiac puncture to harvest blood. Mice were then euthanized by cervical dislocation and BM and bones harvested.
Optimal concentrations of mouse IL-3, IL-6 and soluble kit ligand were added as conditioned media from stably transfected BHK cell lines. Colonies were counted after 7 days culture at 37° C. in a humidified incubator containing 5% CO2.

Another assay has as its system CD34+ cells. To be noted: cited from earlier work.
Assay [2] deals with colony-forming cells (CFCs). As to conditions: Plerixafor; reference (7); cited from earlier work.
Assay [3] deals with hematopoietic stem and progenitor cells. Kind of assay: Phenotypic HSCs, HSPCs and myeloid progenitors in blood, spleen and bone marrow by flow cytometry. It counts as in vivo, C57BL/6 mice. Here is the method:
(§2) Additional HIF-α potentiating agents in the form of PHD inhibitors were tested for their ability to enhance mobilization induced by G-CSF. Compound A, Compound B or Compound C, were tested in male, 7 weeks-old C57BL/6 mice. Mice were injected twice daily sub-cutaneously with rhuG-CSF at a dose of 125 μg/kg per injection for four days. Mice were gavaged with 20 mg/kg Compound A, Compound B, Compound C or vehicle control once daily for three days beginning on day 1 of the experiment.
as §1
The number of phenotypic hematopoietic stem and progenitor cells remaining in the bone marrow following treatment was measured by flow cytometry using antibodies specific for lineage markers (CD3, CD5, CD45R/B220, F4/80, Gr1, CD41, Ter119), Sca-1, Kit, CD48 and CD150. Similarly, the number of phenotypic hematopoietic stem cells mobilized into the blood and spleen were measured. Colony assays were also performed on blood and spleen to determine the number of colony forming cells per mL of blood and per spleen. All results are presented as mean f standard deviation with n=6 per groups. Levels of significance for differences were calculated using the Student's t-test.
All procedures were approved by the animal experimentation ethics committee of the University of Queensland. All experiments were performed on nine to twelve-week old C57BL/6 male mice or genetically modified mice back-crossed at least 10 times into C57BL/6. Recombinant human G-CSF (Amgen, Thousand Oaks, Calif.) was injected twice daily subcutaneously at 125 μg/kg per injection for up to 4 consecutive days. Plerixafor (AMD3100 octohydrochloride, Tocris Bioscience, Bristol, UK) was injected intraperitoneally as a single 16 mg/kg dose corresponding to 10 mg/kg of AMD3100 base. Tissues were harvested 1 h after Plerixafor administration. […] Compounds H and J were administered at 60 mg/kg and Compound K was administered at 100 mg/kg. Control mice were injected with an equivalent volume of saline. At specified time-points, mice were anesthetized with isoflurane before cardiac puncture to harvest blood. Mice were then euthanized by cervical dislocation and BM and bones harvested.
Following flushing with PBS plus 2% NCS, enriched central BM cells were pelleted at 370×g for 5 minutes at 4° C. and resuspended in CD16/CD32 hybridoma 2.4G2 supernatant to block IgGFc receptors. HSCs were stained with the biotinylated lineage antibody cocktail (CD3, CD5, B220, CD11b, Gr-1, Ter119) and biotinylated CD41 together with streptavidin (SAV)-Pacific Blue, anti-Sca-1-PECY7, anti-KIT-APC, CD48-FITC and CD150-PE as previously described (17). Data were acquired on a CyAn (Dako Cytomation) flow cytometer and analyzed following compensation with single color controls using FlowJo software (Tree Star, Ashland, Oreg.).
(In general: Flow cytometry measures light scatter and fluorescence of single cells or particles in a stream.)

A further assay relates to white blood cells. Kind of assay: White blood cell number per mL of blood after mobilization treatment. It counts as in vivo, C57BL/6 mice. Here is the method: as §2, §1
Assay [4] can be described thus: Spleen weight after mobilization treatment. Type of assay: in vivo, C57BL/6 mice. Here is the method: Additional HIF-α potentiating agents in the form of PHD inhibitors were tested for their ability to enhance mobilization induced by G-CSF. Compound A, Compound B or Compound C, were tested in male, 7 weeks-old C57BL/6 mice. Mice were injected twice daily sub-cutaneously with rhuG-CSF at a dose of 125 μg/kg per injection for four days. […]
as §1

Setting [5] is: Example 7: 20 mg/kg + G-CSF vs vehicle + G-CSF, FIGS. 12A-B.
Where [6] appears, read: Example 6: 20 mg/kg + G-CSF vs vehicle + G-CSF, FIG. 10.
Where [7] appears, read: Example 6: 20 mg/kg + G-CSF vs vehicle + G-CSF, FIGS. 8A-B.
[8] abbreviates: Example 6: blood and spleen, 20 mg/kg + G-CSF vs vehicle + G-CSF, FIGS. 9A-B.
[9] abbreviates: Example 6: 20 mg/kg + G-CSF vs vehicle + G-CSF, FIG. 11.

For `c1cc(CN2CCCNCCNCCCNCC2)ccc1CN1CCCNCCNCCCNCC1` [Plerixafor, 1,1′-[1,4-phenylenebis(methylene)]-bis-1,4,8,11-tetra-azacyclotetradecane], in assay [1] (1 hr following Plerixafor treatment with or without Compound X, FIG. 1D), the “mobilization of HSPC to the spleen” value was “no significant mobilization”. For the same molecule, the “enhancement of CFC mobilization in response to G-CSF” value in assay [1] (Plerixafor 16 mg/kg 1 hour prior harvest + 2 days G-CSF, p<0.005) was found to be 10 fold. For the same molecule, the “patients who failed with G-CSF alone who still fail to mobilize adequately” value in the assay with CD34+ cells (G-CSF and Plerixafor, references (8-9)) is 40%. For the same molecule, in the assay on CD34+ cells (Plerixafor daily 1 hr prior to aphaeresis from day 4 of G-CSF, references (8-9)), the “patients who previously failed to mobilize with G-CSF alone who reach the minimal threshold” value was “approximately 60%”. In assay [2], the “time of peak mobilization post-injection” value was 1 h.

In the case of `CC(C)c1nn(Cc2ccc(-c3ccc(F)cc3)cc2F)c(=O)c(C(=O)NCC(=O)O)c1O` [Compound E, {[2-(3,4′-Difluoro-biphenyl-4-ylmethyl)-5-hydroxy-6-isopropyl-3-oxo-2,3-dihydro-pyridazine-4-carbonyl]-amino}-acetic acid], the “number of CFUs mobilized from the bone marrow to the blood and spleen” value in assay [1] (Example 7: D 60 mg/kg, E and F 20 mg/kg, + G-CSF vs vehicle + G-CSF, FIG. 13) is listed as “significantly increased”. In assay [3] (setting [5]), the “total number of HSCs (LSK48-150+) mobilized from the bone marrow” value is “significant increase”; the “total number of HSPCs (LSK48+ and LSK) mobilized from the bone marrow” value was “significant increase”. In addition, the “total number of HSCs and progenitors in the BM” value in assay [3] (Example 7: Compound D 60 mg/kg, E and F 20 mg/kg, + G-CSF vs vehicle + G-CSF) is recorded as “did not significantly alter”. Further, in assay [3] (Example 7: D 60 mg/kg, E and F 20 mg/kg, + G-CSF vs vehicle + G-CSF, FIGS. 12A-B), the “total number of myeloid progenitors (LKS−) mobilized” value is on record as “significant increase”. For the same molecule, in the assay on white blood cells (Example 7: D 60 mg/kg, E 20 mg/kg, + G-CSF vs vehicle + G-CSF), the “number of white blood cells per mL of blood” value is “significant increase”. For the same molecule, in assay [4] (Example 7: D 60 mg/kg, E and F 20 mg/kg, + G-CSF vs vehicle + G-CSF), the “increase in spleen weight” value is recorded as “approximately 2 fold”.

As for `N#Cc1nc(C(=O)NCC(=O)O)c(O)c2c(Oc3ccccc3)cccc12` [Compound B, [(1-Cyano-4-hydroxy-5-phenoxy-isoquinoline-3-carbonyl)-amino]-acetic acid], in assay [1] (setting [6]), the “number of CFUs mobilized to the spleen” value was “statistically significant” and the “number of colony forming units mobilized to the blood” value is “no significant change”. Further, in assay [1] (Example 6: 20 mg/kg + G-CSF, FIG. 10), the “total number of CFUs mobilized, relative to Compound A or Compound C with G-CSF” value is recorded as “comparable”. In addition, the “mobilization of myeloid progenitors (LKS−) to the blood” value in assay [3] (Example 6: 20 mg/kg + G-CSF vs vehicle + G-CSF) is reported as “did not significantly alter”. In addition, in assay [3] (setting [7]), the “increase in mobilization of myeloid progenitors (LKS−) to the spleen” value is reported as “approximately 3 fold”; the “increase in number of HSPCs (LSK48+ and LSK) mobilized to the spleen” value is reported as “approximately 2 fold”; the “increase in number of phenotypic HSCs (LSK48−150+) mobilized to the spleen” value is “approximately 2 fold”. Also, in assay [3] (Example 6: 20 mg/kg once daily 3 days + rhuG-CSF 125 μg/kg twice daily 4 days vs vehicle + G-CSF, FIGS. 6A-B), the “total number of phenotypic HSPCs in the bone marrow” value is “did not significantly alter”. Also, in assay [3] (setting [8]), the “increase in total number of HSPCs (LSK48+ and LSK) mobilized from the bone marrow” value was “approximately 2 fold”; the “increase in total number of myeloid progenitors (LKS−) mobilized from the bone marrow” value is “approximately 6 fold”; the “increase in total number of phenotypic HSCs (LSK48−150+) mobilized from the bone marrow” value is “approximately 2 fold”. In addition, in the assay with white blood cells (setting [9]), the “number of white blood cells per mL of blood” value is recorded as “significant increase”. Also, the “increase in spleen weight” value in assay [4] (setting [9]) was “approximately 2 fold”.

B1: G-CSF: cytokine granulocyte colony-stimulating factor, the main mobilizing agent used in the clinic; recombinant human G-CSF (Amgen) (protein, UniProt P09919 31-207, looked up)
Granulocyte …: TPLGPASSLPQSFLLKCLEQVRKIQGDGAALQEKLVSECATYKLCHPEELVLLGHSLGIPWAPLSSCPSQALQLAGCLSQLHSGLFLYQGLLQALEGISPELGPTLDTLQLDVADFATTIWQQMEELGMAPALQPTQGAMPAFASAFQRRAGGVLVASHLQSFLEVSYRVLRHLAQP
modifications: filgrastim
For the molecule B1, the “chemotherapy-treated patients who fail to reach the minimal threshold of 2×10^6 CD34+ cells/kg” value in the assay on CD34+ cells (autologous setting, in response to G-CSF, reference (1)) is recorded as 30-60%.
